Laboratory results: ChEMBL document CHEMBL1201862, “PubChem BioAssay data set” (2004)
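How tested: cells in 96-well plates exposed to compound for 48 hours at five concentrations. GI50 is the concentration that inhibits growth by half.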 Active and inactive are the calls of the source. Rule as the data show it: active = GI50 up to about 1.1 µM and inactive = higher.

Key:
Assay in all cases: DTP human tumour cell line panel, 48 h
[1] = tested on: CCRF-CEM
[2] = tested on: HCT-15
[3] = tested on: IGROV-1
[4] = tested on: M14
[5] = tested on: MCF7
[6] = tested on: MDA-MB-231
[7] = tested on: MDA-MB-435
[8] = tested on: NCI-H460
[9] = tested on: NCI-H522
[10] = tested on: OVCAR-3
[11] = tested on: OVCAR-4
[12] = tested on: OVCAR-8
[13] = tested on: SF-268
[14] = tested on: SF-295
[15] = tested on: SF-539
[16] = tested on: UACC-257
[17] = tested on: UO-31
[18] = tested on: A549
[19] = tested on: Malme-3M
[20] = tested on: SN12C

| Compound | GI50 [1] | GI50 [2] [µM] | GI50 [3] | GI50 [4] | GI50 [5] | GI50 [6] | GI50 [7] | GI50 [8] | GI50 [9] | GI50 [10] | GI50 [11] | GI50 [12] | GI50 [13] | GI50 [14] | GI50 [15] | GI50 [16] | GI50 [17] | GI50 [18] | GI50 [19] | GI50 [20] |
| --- | --- | --- | --- | --- | --- | --- | --- | --- | --- | --- | --- | --- | --- | --- | --- | --- | --- | --- | --- | --- |
| CC1=NN(c2nc(N)nc(/C(C#N)=C\c3csc([N+](=O)[O-])c3)n2)C(C)(C)C1 | 2.23 µM (inactive) | 81.3 | 49.3 µM (inactive) | > 100 µM (inactive) | 35.6 µM (inactive) | 26.9 µM (inactive) | 39.7 µM (inactive) | 32.7 µM (inactive) | 21.3 µM (inactive) | 26.4 µM (inactive) | 21.9 µM (inactive) | 25.1 µM (inactive) | 21.8 µM (inactive) | 45.5 µM (inactive) | 27.2 µM (inactive) | 45.7 µM (inactive) | 37.4 µM (inactive) | – | – | – |
| COc1cccc(Cc2cc(=O)c3ccc(C)nc3[nH]2)c1 | > 100 µM (inactive) | > 100 | > 100 µM (inactive) | > 100 µM (inactive) | > 100 µM (inactive) | > 100 µM (inactive) | > 100 µM (inactive) | > 100 µM (inactive) | 13.2 µM (inactive) | > 100 µM (inactive) | – | > 100 µM (inactive) | > 100 µM (inactive) | > 100 µM (inactive) | – | > 100 µM (inactive) | > 100 µM (inactive) | > 100 µM (inactive) | 57.7 µM (inactive) | > 100 µM (inactive) |
| COC1=CC(=O)C2=C(C1=O)[C@H]1CC[C@]3(C)C(=O)CC[C@H]3[C@@H]1CC2 | 3.62 µM (inactive) | 27.2 | 21.4 µM (inactive) | 30.4 µM (inactive) | 19 µM (inactive) | 4 µM (inactive) | 19.8 µM (inactive) | > 100 µM (inactive) | 24.2 µM (inactive) | 23.3 µM (inactive) | 15.8 µM (inactive) | 18.1 µM (inactive) | 21.5 µM (inactive) | 66.7 µM (inactive) | 19.6 µM (inactive) | 22.9 µM (inactive) | 22.2 µM (inactive) | 45.3 µM (inactive) | – | 21.4 µM (inactive) |
| CO[C@H]1O[C@@H]2CO[C@@H](c3ccccc3)O[C@H]2[C@@H]2CC=CCC[C@]12O | 31 µM (inactive) | 39.6 | 59.6 µM (inactive) | 72.6 µM (inactive) | 42.6 µM (inactive) | > 100 µM (inactive) | 45.7 µM (inactive) | 35.7 µM (inactive) | 16.5 µM (inactive) | 69.7 µM (inactive) | 57.3 µM (inactive) | 73.1 µM (inactive) | 21.8 µM (inactive) | 74.5 µM (inactive) | – | 35.6 µM (inactive) | 48.2 µM (inactive) | 59.8 µM (inactive) | 12.6 µM (inactive) | 61.8 µM (inactive) |
| Cc1ccc2c(=O)c(-c3n[nH]c(=S)s3)c[nH]c2n1 | > 100 µM (inactive) | > 100 | > 100 µM (inactive) | > 100 µM (inactive) | > 100 µM (inactive) | > 100 µM (inactive) | > 100 µM (inactive) | > 100 µM (inactive) | 82.8 µM (inactive) | > 100 µM (inactive) | > 100 µM (inactive) | > 100 µM (inactive) | > 100 µM (inactive) | > 100 µM (inactive) | – | > 100 µM (inactive) | > 100 µM (inactive) | > 100 µM (inactive) | > 100 µM (inactive) | > 100 µM (inactive) |
| CNC1=Nc2ccccc2C(=O)N2CSCC12 (stereo not given) | > 100 µM (inactive) | > 100 | > 100 µM (inactive) | > 100 µM (inactive) | > 100 µM (inactive) | > 100 µM (inactive) | > 100 µM (inactive) | > 100 µM (inactive) | 23.9 µM (inactive) | > 100 µM (inactive) | > 100 µM (inactive) | > 100 µM (inactive) | > 100 µM (inactive) | > 100 µM (inactive) | – | > 100 µM (inactive) | > 100 µM (inactive) | > 100 µM (inactive) | > 100 µM (inactive) | > 100 µM (inactive) |
| CC1CC(C)C(C#N)N(C)c2ccccc21 (stereo not given) | 51.8 µM (inactive) | > 100 | > 100 µM (inactive) | > 100 µM (inactive) | 81.3 µM (inactive) | > 100 µM (inactive) | 69.2 µM (inactive) | > 100 µM (inactive) | – | > 100 µM (inactive) | > 100 µM (inactive) | > 100 µM (inactive) | > 100 µM (inactive) | > 100 µM (inactive) | > 100 µM (inactive) | > 100 µM (inactive) | > 100 µM (inactive) | > 100 µM (inactive) | > 100 µM (inactive) | > 100 µM (inactive) |
